Measured values: US20220008451A1, “FLAVIN ADENINE DINUCLEOTIDE (FAD) FOR USE IN THE PREVENTION AND/OR TREATMENT OF CANCER” (priority 2018, published 2022)

How the values were obtained:
[1] = system: MIA Paca-2 cells; assay: MIA Paca-2 MTT viability test; assay type: cell-based, human; conditions: 120 μM/L, 2 hours
Procedure: (§1) MIA Paca-2 cells are human pancreatic cancer cells [American Tissue Cell Culture (ATCC, Manassas, Va., USA)] cultured in DMEM medium. The MTT viability test is performed at a cell density of 0.1×10*6 cells/mL. The tested products are incubated for 2 hours at a concentration of 120 μM/L and in triplicate, with culture control (ref: Blank) (100%) and a positive DMSO control (5%). Under these conditions, cell viability is 34% in the presence of FAD alone, 6% with FAD-PEG.

[2] = system: cancer cells in culture; assay: Growth inhibition of cancer cells in culture; assay type: cell-based; conditions: read-out: inhibitory concentration (IC50) reducing growth of cancer cells in culture by 50%
[3] = system: Mouse HEP 1-6 liver cancer cells; assay: HEP 1-6 liver cancer model in mice; assay type: in vivo
[4] = system: HepG2 hepatocellular carcinoma; assay: Viability of HepG2 cells; assay type: cell-based; conditions: Homo sapiens
[5] = MIA Paca-2 MTT viability test; assay type: cell-based, human; conditions: human, MIA Paca-2 cells, read-out: cell viability
Procedure: as §1

[6] = system: murine breast cancer cell line 4T1; assay: 4T1 breast cancer model in mice; assay type: in vivo, BALB/c mice; conditions: compared to control groups
[7] = system: Huh-7replicon; assay: Viability of Huh-7replicon cells; assay type: cell-based
[8] = system: HT22 cells (murine brain tumour); assay: HT22 growth inhibition, MTS test; assay type: cell-based
Procedure: HT22 cells (murine brain tumour) are tested with the gold-FAD-PEG particle obtained by the IN method.

[9] = system: Monocytes isolated from peripheral blood (PBMC); assay: Viability of non-cancerous peripheral blood monocytes (PBMC); assay type: cell-based
[10] = system: HT-1080 fibrosarcoma cells; assay: Viability of HT-1080 cells; assay type: cell-based; conditions: Homo sapiens
[11] = system: MiaPaCA2 pancreatic cancer; assay: Viability of MiaPaCA2 cells (Example 14); assay type: cell-based
[12] = Resistance to hydrolysis in serum; assay type: in vitro ADME; conditions: 20 hours
Procedure: A comparative hydrolysis test of unbound FAD and micrometer-sized FAD-PEG obtained in Example 7 is performed in serum to test resistance to enzymes.

[13] = system: CEM (myeloid leukaemia) cells; assay: Viability of CEM myeloid leukaemia cells; assay type: cell-based; conditions: 48 hours incubation; read-out: mean IC50, viability of cancer cells in the lineage
[14] = system: Nucleo PyroPhosphatase enzyme; assay: Protection of FAD against Nucleo PyroPhosphatase hydrolysis (HPLC); assay type: in vitro ADME; conditions: 25° C.
Procedure: FAD protection in particles in comparison with unbound FAD is studied. Different particles containing FAD are compared to unbound FAD: • The FAD encapsulated with a gold FAD-PEG particle ON is obtained by the ON method described in example 2. • The FAD encapsulated with a gold-FAD-PEG particle IN is obtained by the IN method obtained in example 1. The different particles and the unbound FAD are each placed in a solution of the Nucleo PyroPhosphatase enzyme at 25° C. The concentration of the FAD is monitored over time by HPLC assay.

[15] = system: DNA aptamer; assay: Intercalation in DNA aptamer grafted on gold nanoparticles; assay type: binding; conditions: 5 mg/ml, UV visible and RAMAN
Excerpt: Small molecules with aromatic structures are intercalated into DNA, which is the case of some extremely powerful and effective drugs. The hypothesis that FAD intercalates into DNA has been tested using a DNA aptamer grafted onto the surface of nanoparticles (NP).
The aptamer used is a single-stranded, thiolated DNA sequence of formula 5′HS-TT TTTTTTTTTTTTTTCTTCTCTAGCTGAATAACCGGAAGTAACTCATCGTTTCGATGAGTTACTTCCGGTTATTCAGCTAGAGAAG 3′, grafted to the surface of gold nanoparticles in the presence of a catalyst agent (N-[3-(dimethylamino) propyl]-N′-ethylcarbodiimide/N-hydroxysuccinimide, Sigma-Aldrich) (EDC/NHS), 50 μL, of DNA with a ratio (40 mg/10 mg) to 5 ml of gold NP solution, to allow activation of the carboxylic group (PEG-COOH) on the surface of the nanoparticles for immobilisation of the aptamer by covalent bonds. The bond is made between the carboxyl group of the EDC/NHS-activated PEG and the NH2 groups of the aptamer.
The grafting of the DNA on the surface of the gold nanoparticles is verified by UV spectroscopy (UV-visible absorbance measurements).
The particles were then placed in the presence of FAD or FAG-PEG (5 mg/ml, two formulations) and DNA intercalation, detected and measured by two techniques: UV visible and by RAMAN spectroscopy.

[16] = system: MCF7 (breast cancer) cancer cells; assay: MCF7 growth inhibition, MTS test; assay type: cell-based; conditions: 48 hours
Procedure: Growth inhibition of MCF7 (breast cancer) cancer cells is tested on MCF7 cells in culture for 48 hours in contact with the gold-FAD-PEG particle with or without a targeting agent obtained by the IN method. […] (Promega—Cell Titer Proliferation Assay).

Q: For C[S+](C)[O-] [DMSO, reference compound], which cell viability [1] is on record?
A: 5%

Q: With Cc1cc2nc3c(=O)[nH]c(=O)nc-3n(CC(O)C(O)C(O)COP(=O)(O)OP(=O)(O)OC[C@H]3O[C@@H](n4cnc5c(N)ncnc54)C(O)C3O)c2cc1C (stereo partly drawn) [FAD, Flavin Adenine Dinucleotide] as the compound, how does the IC50 [2] read?
A: 500 to 5000 nM

Q: What about the “reduction in tumour volume” value [3] of the same compound?
A: 24%

Q: And the IC50 [4]?
A: 1100 to 1800 nM

Q: And the viability at 2 hours, 120 μM/L [5]?
A: 34%

Q: And the IL-10 content [6]?
A: significantly increased

Q: What about the “level of IL-1α” value [6] of the same compound?
A: significantly reduced

Q: And the “level of IL-1 β” value [6]?
A: significantly reduced

Q: And the “level of IL-6” value [6]?
A: significantly reduced

Q: And the “level of IL-12P70” value [6]?
A: significantly reduced

Q: What about the “level of TNF α” value [6] of the same compound?
A: significantly reduced

Q: And the IC50 [7]?
A: 1100 to 1800 nM

Q: What about the IC50 ([8]; Mus musculus, HT-22, Example 14, read-out: IC50, viability of HT22 neuronal cancer cells) of the same compound?
A: 1600 nM

Q: What about the IC50 ([9]; 48 hours incubation, read-out: IC50, viability of primary non-cancerous cells) of the same compound?
A: > 100000 nM

Q: What about the GI50 ([9]; normal blood monocytes PBM cells) of the same compound?
A: > 100000 nM

Q: And the IC50 [10]?
A: 1100 to 1800 nM

Q: And the “viability of the cells” value ([11]; 90 μM, 24 hours of exposure)?
A: significantly altered

Q: What about the IC50 ([11]; Homo sapiens, MIA PaCa-2, MiaPaCA2) of the same compound?
A: 10000 nM

Q: What about the hydrolysis in serum [12] of the same compound?
A: almost completely hydrolyzed

Q: What about the IC50 [13] of the same compound?
A: 1600 nM

Q: What about the “time to full hydrolysis of FAD” value [14] of the same compound?
A: ≤ 15 min

Q: What about the DNA intercalation [15] of the same compound?
A: intercalates to DNA

Q: For CN[C@@H]1C[C@H]2O[C@@](C)([C@@H]1OC)n1c3ccccc3c3c4c(c5c6ccccc6n2c5c31)C(=O)NC4 [staurosporin, reference compound], which GI50 [16] is on record?
A: ~40000 nM

Q: And the GI50 ([8]; read-out: 50% growth inhibition (GI 50), 48 hours, MTS)?
A: 2700 nM
